Like-named read-outs stand apart in the source and are kept apart here.
Columns and labels:
[1] = Protocol: By “water-soluble” we mean that 1 mg of material in 1 ml of water gives a clear solution and is water miscible.
(§1) For the in vivo studies, the drugs were dissolved in either saline or emulphor:ethanol:saline (E:E:S) as indicated.

mice [2] = assay: Relative immobility (R.I.), ring-immobility test, mouse tetrad; type: in vivo; conditions: Mus musculus
human CB1 receptor [3] = target: T1, human CB1 receptor (Homo sapiens, UniProt P21554); assay: [35S]GTPγS binding assay in membranes of CB1 expressing cells; type: biochemical; conditions: for EC50: mean±SEM; for Emax: maximal GTPγS binding as percentage of stimulation produced by CP 55,940, read-out: CB1 % CP Stim
T1 construct: expressed in transfected cells; b94 says CHO for CB1
Protocol: as §1
(§2) cLogP calculations. Absolute solubility determinations were not performed. Rather, cLogP calculations were performed using the CS ChemDraw Ultra software (Cambridge Soft Corporation, Cambridge, Mass.). Receptor Binding. HEK-293 cells stably expressing the human CB1 receptor were cultured in DMEM with 10% FBS and Chinese Hamster Ovary (CHO) cells stably expressing the human CB2 receptor were cultured in DMEM with 10% FCS. Cells were harvested by replacement of the media with cold phosphate-buffered saline containing 1 mM EDTA followed by centrifugation at 1000×g for 5 min at 4° C. The pellet was resuspended in 50 mM Tris-HCl containing 320 mM sucrose, 2 mM EDTA and 5 mM MgCl2 (pH 7.4) (centrifugation buffer), then centrifuged at 1000×g for 10 min at 4° C., and the resulting supernatant was saved. This process was repeated twice. The supernatant fractions were combined and centrifuged at 40,000×g for 30 min at 4° C. The resulting P2 pellet was resuspended in assay buffer (50 mM Tris-HCl (pH 7.4), 3 mM MgCl2, 0.2 mM EGTA, and 100 mM NaCl) and protein was determined by the method of Bradford ENRfu(Bradford 1976). Membranes were stored at −80° C. until use. […] The assay was incubated at 30° C. for 1 hr and terminated by addition of ice cold 50 mM Tris-HCl plus BSA (1 mg/ml) (pH 7.4) followed by filtration under vacuum through Whatman GF/B glass fiber filters with 3 washes with cold Tris buffer. Bound radioactivity was determined by liquid scintillation spectrophotometry at 50% efficiency after extraction by shaking samples for 30-60 min with Budget-Solve scintillation fluid. Data are reported as the mean±SEM of three experiments, each performed in triplicate. Ki values were calculated from displacement data using EBDA (Equilibrium Binding Data Analysis; BIOSOFT, Milltown, N.J.). [^35S]GTPγS Binding Assays. Concentration-effect curves were generated by incubating membranes (10 μg prepared from CB1 expressing cells as described above) in assay buffer containing BSA (1 mg/ml) with various concentrations of test compounds in the presence of 20 μM GDP and 0.1 nM [^35S]GTPγS in a 1 ml total volume. […] Basal binding was assessed in the absence of agonist, and nonspecific binding was measured in the presence of 10 μM GTPγS. The reaction was incubated for 90 min at 30° C. and terminated by filtration under vacuum through Whatman GF/B glass fiber filters with 3 washes with cold (4° C.) Tris buffer (50 mM Tris-HCl, pH 7.4). Bound radioactivity was determined by liquid scintillation spectrophotometry at 95% efficiency after extraction overnight in ScintiSafe Econo 1 scintillation fluid. Data are reported as mean±SEM of three experiments, each performed in triplicate. Nonlinear regression analysis was conducted by iterative fitting using JMP (SAS for Macintosh). Net-stimulated [^35S]GTPγS binding is defined as [^35S]GTPγS binding in the presence of drug minus basal and percent stimulation is expressed as (net stimulated [^35S]GTPγS binding/basal)×100%. Behavioral Evaluations. All animals were allowed to acclimate to the observation room overnight. Behavioral effects were assessed in the tetrad model in order to measure potency in producing antinociception, catalepsy, hypothermia, and hypomobility. The baselines for tail-flick latency (2-4 seconds) and rectal temperature were determined prior to i.v. injections. Baseline rectal temperatures were measured using a telethermometer and a thermometer probe inserted to 25 mm (Yellow Springs Instrument Co., Yellow Springs, Ohio). The mice were then given either an i.v. i.c.v. injection of the analog. The mice were placed in individual photocell activity chambers 5 min later. Spontaneous activity was monitored for 10 min in a Digiscan Animal Activity Monitor (Omnitech Electronice, Inc., Columbus, Ohio) as measured by the number of interruptions of 16 photocell beams per chamber.

mice [4] = assay: Rectal temperature (R.T.), mouse tetrad; type: in vivo; conditions: Mus musculus
mice [5] = assay: Tail-flick antinociception (T.F.), mouse tetrad; type: in vivo; conditions: for ED50: Mus musculus, mice
mice [6] = assay: Spontaneous activity (S.A.), mouse tetrad; type: in vivo; conditions: Mus musculus
human CB1 receptor [7] = target: T1, human CB1 receptor; assay: CB1 receptor binding, [3H]CP55,940 displacement in membranes of transfected cells
Protocol: as §1, §2

[8] = iv, figure legends, i.v., vehicle 1:1:18 ethanol:emulphor:saline, read-out: ED50 after i.v. administration, relative immobility
[9] = iv, vehicle E:E:S (1:1:18), read-out: R.I. ED50 (relative immobility)
[10] = iv, figure legends, i.v., vehicle 1:1:18 ethanol:emulphor:saline, read-out: ED50 after i.v. administration, rectal temperature
[11] = iv, vehicle E:E:S (1:1:18), read-out: R.T. ED50 (lowering rectal temperature)
[12] = iv, figure legends, i.v., vehicle 1:1:18 ethanol:emulphor:saline, read-out: ED50 after i.v. administration, tail-flick
[13] = iv, i.v., vehicle E:E:S (1:1:18), read-out: T.F. ED50 (antinociception in the tail-flick procedure)
[14] = iv, figure legends, i.v., vehicle 1:1:18 ethanol:emulphor:saline, read-out: ED50 after i.v. administration, spontaneous activity
[15] = iv, vehicle E:E:S (1:1:18), read-out: S.A. ED50 (reducing spontaneous activity)

T1 sequence (P21554 whole entry): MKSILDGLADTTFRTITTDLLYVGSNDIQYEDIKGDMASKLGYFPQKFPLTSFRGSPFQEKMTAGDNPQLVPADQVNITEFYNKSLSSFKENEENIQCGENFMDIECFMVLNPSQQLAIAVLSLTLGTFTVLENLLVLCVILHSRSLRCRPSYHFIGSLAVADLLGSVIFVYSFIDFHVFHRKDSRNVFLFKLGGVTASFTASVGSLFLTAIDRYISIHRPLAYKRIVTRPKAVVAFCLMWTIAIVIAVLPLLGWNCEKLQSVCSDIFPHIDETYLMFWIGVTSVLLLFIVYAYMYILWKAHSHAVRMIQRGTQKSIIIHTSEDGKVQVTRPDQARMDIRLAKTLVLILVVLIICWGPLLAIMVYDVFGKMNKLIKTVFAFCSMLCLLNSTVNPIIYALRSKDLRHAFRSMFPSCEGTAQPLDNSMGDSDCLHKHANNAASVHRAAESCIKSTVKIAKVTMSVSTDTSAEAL

SMILES: CC1=CC[C@@H]2C(C1)c1c(OC(=O)CCCN(C(C)C)C(C)C)cc(C(C)(C)CCCCC(=O)N3CCOCC3)cc1OC2(C)C (stereo partly shown) [O-2694, Diisopropylaminobutyrate of Δ^8-THC-3-(1,1-dimethyl-6-morpholin-4-yl-6-oxo-hexyl)]
- Solubility (water-soluble) ([1]; 1 mg of analog in 1 ml of water, visual observation): Yes
- ED50 (mice [2]; Table 4b, vehicle not indicated, read-out: R.I. ED50 (relative immobility)): 0.11 µmol/kg
- EC50 (human CB1 receptor [3]; [35S]GTPγS binding, read-out: CB1 EC50): 28.3 ± 3.47 nM
- Emax (human CB1 receptor [3]): 120 ± 8.04%
- ED50 (mice [4]; Table 4b, vehicle not indicated, read-out: R.T. ED50 (lowering rectal temperature)): 0.12 µmol/kg
- ED50 (mice [5]; Table 4b, vehicle not indicated, read-out: T.F. ED50 (antinociception in the tail-flick procedure)): 0.035 µmol/kg
- ED50 (mice [6]; Table 4b, vehicle not indicated, read-out: S.A. ED50 (reducing spontaneous activity)): 0.045 µmol/kg
- Ki (human CB1 receptor [7]; Tables 2b, 3b, 4a, mean±SEM, read-out: CB1 Ki): 3.7 ± 0.43 nM

SMILES: CC1=CC[C@@H]2[C@@H](C1)c1c(O)cc(C(C)(C)CCCCn3cccn3)cc1OC2(C)C [O-2715, Pyrazol-1-yl]
- Solubility (water-soluble) [1]: No
- ED50 (mice [2]; [8]): 0.07 µmol/kg
- ED50 (mice [2]; [9]): 0.07 µmol/kg
- EC50 (human CB1 receptor [3]; CB1 EC50, [35S]GTPγS binding): 4.03 ± 0.28 nM
- Emax (human CB1 receptor [3]): 93 ± 1.75%
- ED50 (mice [4]; [10]): 0.14 µmol/kg
- ED50 (mice [4]; [11]): 0.14 µmol/kg
- ED50 (mice [5]; [12]): 0.06 µmol/kg
- ED50 (mice [5]; [13]): 0.06 µmol/kg
- Analgesia in the tail-flick procedure (mice [5]; oral 10 mg/kg, at one hr): 21±6%
- ED50 (mice [6]; [14]): 0.004 µmol/kg
- ED50 (mice [6]; [15]): 0.004 µmol/kg
- Ki (human CB1 receptor [7]; CB1 Ki): 1.94 ± 0.29 nM

SMILES: CC1=CC[C@@H]2[C@@H](C1)c1c(O)cc(C(C)(C)CCCCn3cncn3)cc1OC2(C)C [O-2716, 1,2,4-Triazol-1-yl]
- Solubility (water-soluble) [1]: No
- ED50 (mice [2]; [8]): 0.2 µmol/kg
- ED50 (mice [2]; [9]): 0.2 µmol/kg
- EC50 (human CB1 receptor [3]; CB1 EC50, [35S]GTPγS binding): 36.8 ± 4.23 nM
- Emax (human CB1 receptor [3]): 93.1 ± 1.65%
- ED50 (mice [4]; [10]): 0.15 µmol/kg
- ED50 (mice [4]; [11]): 0.15 µmol/kg
- ED50 (mice [5]; [12]): 0.09 µmol/kg
- ED50 (mice [5]; [13]): 0.09 µmol/kg
- Antinociception following oral administration (mice [5]; oral, maximum dose tested 10 mg/kg, 30 minutes before testing): failed to produce complete antinociception
- ED50 (mice [6]; [14]): 0.03 µmol/kg
- ED50 (mice [6]; [15]): 0.03 µmol/kg
- Ki (human CB1 receptor [7]; CB1 Ki): 3.43 ± 0.16 nM

Source: patent publication US20080064679A1, “Water Soluble Cannabinoids” (priority 2004, published 2008)
